# Measured values: patent US12459951B2, “Compounds that interact with RAS superfamily proteins for treatment of cancers, inflammatory diseases, rasopathies, and fibrotic disease” (SHY Therapeutics, LLC, priority 2022, dated 2025)
# System: Smad2/Smad3 phosphorylation
# Test: Phospho-Smad2/3 Inhibition Assay (western blot), Panc-1
# Type: cell-based, human
# Conditions: at 10 μM, Panc-1 pancreatic cancer cell line; starred symbols = activation
# Protocol: Protocol for Phospho-Smad2/3 Inhibition Assay
# This assay is referred to as the “Phospho-Smad2/3 Inhibition Assay” throughout this application.
# Cell lines: Human tumor-derived pancreatic cancer cell line Panc-1 (expressing KRas G12D mutant) and mouse muscle myoblast C2C12 were purchased from American Type Culture Collection and grown in complete DMEM-High Glucose, supplemented with penicillin (100 U/mL), streptomycin (100 μg/mL), and 10% heat-inactivated FBS at 37° C. in a humidified incubator with 5% CO2.
# Method: Cells were plated at 350000 cells/well density in a 12-well plate, allowed 3 hours to adhere to the plate, then starved in the appropriate medium in the presence of 0.5% FBS overnight. The small molecules to be tested were added to the cells in the final concentration of 10 μM in the presence of 0.3% DMSO for 3 hours incubation at 37° C. For IC50 value determination, serial dilutions of compounds were added to cells under the same conditions. Next, Panc-1 cells were stimulated with 10 ng/ml TGF-b1 for 1 hour, and C2C12 cells were stimulated with 10 ng/ml TGF-b1 for 20 minutes (recombinant human TGF-b1, R&D Systems). After stimulation cells were lysed with lysis buffer containing 1% Triton X-100, EDTA, and Halt™ Protease & Phosphatase Inhibitor Cocktail (Thermo Scientific). Protein concentration was assessed by BCA protein assay (Thermo Scientific). Phosphorylation level of Smad2/Smad3 was determined by western blot.
# Western blot protocol: Equal amounts of protein (15-50 μg) were separated by SDS-PAGE and transferred to nitrocellulose membranes (Invitrogen by Thermo Fisher Scientific). The membrane was stained with Ponceau S Stain (Boston BioProducts) to verify uniform protein loading. Membranes were blocked with 10% milk and phosphorylation levels of Smad2/Smad3 were assessed by incubating overnight at 4° C. with the following antibodies: Phospho-Smad2 (Ser465/467) and Phosph-Smad3 (Ser423/425), both from Cell Signaling Technology. Then the membranes were incubated with HRP-conjugated secondary antibody (Jackson Immunoresearch, West Grove, PA). Bands were incubated in Amersham ECL Prime Western Blotting Detection Reagent (GE Healthcare) and visualized using the ChemiDoc MP imaging system (Bio-Rad).
row,SMILES,% inh of Smad2/3 phosphorylation in Panc-1
1,"Cc1c(-c2ccn(C3CC3)n2)cn2nc(-c3nccn3C)nc(Nc3cc(O)ccn3)c12 [Compound 150, 2-((6-(1-Cyclopropyl-1H-pyrazol-3-yl)-5-methyl-2-(1-methyl-1H-imidazol-2-yl)pyrrolo[2,1-f][1,2,4]triazin-4-yl)amino)pyridin-4-ol]",A (A = 1-25% inhibition)
2,"COc1cccnc1Nc1nc(-c2nccn2C)nn2cc(-c3ccn(C)n3)c(C)c12 [Compound 112, N-(3-Methoxypyridin-2-yl)-5-methyl-2-(1-methyl-1H-imidazol-2-yl)-6-(1-methyl-1H-pyrazol-3-yl)pyrrolo[2,1-f][1,2,4]triazin-4-amine]",D* (D* = 76-100% activation)
3,"CO[C@H]1C[C@H](Nc2nc(-c3nccn3C)nn3cc(-c4ccncc4)c(C)c23)C1 [Compound 159, N-((1r,3r)-3-Methoxycyclobutyl)-5-methyl-2-(1-methyl-1H-imidazol-2-yl)-6-(pyridin-4-yl)pyrrolo[2,1-f][1,2,4]triazin-4-amine]",C (C = 46-75% inhibition)
4,"COc1ccnc(Nc2nc(-c3nccn3C)nn3cc(-c4cccnc4)c(-c4ccccn4)c23)c1 [Compound 166, N-(4-Methoxypyridin-2-yl)-2-(1-methyl-1H-imidazol-2-yl)-5-(pyridin-2-yl)-6-(pyridin-3-yl)pyrrolo[2,1-f][1,2,4]triazin-4-amine]",C* (C* = 46-75% activation)
5,"Cc1c(-c2ccn(C3CC3)n2)cn2nc(-c3nccn3C)nc(Nc3cc(OCCO)ccn3)c12 [Compound 146, 2-((2-((6-(1-Cyclopropyl-1H-pyrazol-3-yl)-5-methyl-2-(1-methyl-1H-imidazol-2-yl)pyrrolo[2,1-f][1,2,4]triazin-4-yl)amino)pyridin-4-yl)oxy)ethan-1-ol]",C (C = 46-75% inhibition)
6,"Cc1c(-c2ccn(C3CC3)n2)cn2nc(-c3nccn3C)nc(Nc3cc(OCC(F)(F)F)ccn3)c12 [Compound 140, 6-(1-Cyclopropyl-1H-pyrazol-3-yl)-5-methyl-2-(1-methyl-1H-imidazol-2-yl)-N-(4-(2,2,2-trifluoroethoxy)pyridin-2-yl)pyrrolo[2,1-f][1,2,4]triazin-4-amine]",A (A = 1-25% inhibition)
7,"COc1cnc(Nc2nc(-c3nccn3C)nn3cc(-c4ccn(C)n4)c(C)c23)cn1 [Compound 110, N-(5-Methoxypyrazin-2-yl)-5-methyl-2-(1-methyl-1H-imidazol-2-yl)-6-(1-methyl-1H-pyrazol-3-yl)pyrrolo[2,1-f][1,2,4]triazin-4-amine]",A* (A* = 1-25% activation)
8,"Cc1c(-c2ccn(C)n2)cn2nc(-c3nccn3C)nc(Nc3cn(C(C)C)nn3)c12 [Compound 109, N-(1-Isopropyl-1H-1,2,3-triazol-4-yl)-5-methyl-2-(1-methyl-1H-imidazol-2-yl)-6-(1-methyl-1H-pyrazol-3-yl)pyrrolo[2,1-f][1,2,4]triazin-4-amine]",D* (D* = 76-100% activation)
9,"CO[C@H]1C[C@H](Nc2nc(-c3nccn3C)nn3cc(-c4cccnc4)c(-c4ccccn4)c23)C1 [Compound 168, N-((1r,3r)-3-Methoxycyclobutyl)-2-(1-methyl-1H-imidazol-2-yl)-5-(pyridin-2-yl)-6-(pyridin-3-yl)pyrrolo[2,1-f][1,2,4]triazin-4-amine]",A* (A* = 1-25% activation)
10,"Cc1c(-c2ccn(C(C)C)n2)cn2nc(-c3nccn3C)nc(Nc3nccc(OCCO)n3)c12 [Compound 121, 2-((2-((6-(1-Isopropyl-1H-pyrazol-3-yl)-5-methyl-2-(1-methyl-1H-imidazol-2-yl)pyrrolo[2,1-f][1,2,4]triazin-4-yl)amino)pyrimidin-4-yl)oxy)ethan-1-ol]",A (A = 1-25% inhibition)
11,"Cc1c(-c2ccn(C(C)C)n2)cn2nc(-c3nccn3C)nc(Nc3nccn3C)c12 [Compound 93, 6-(1-Isopropyl-1H-pyrazol-3-yl)-5-methyl-N,2-bis(1-methyl-1H-imidazol-2-yl)pyrrolo[2,1-f][1,2,4]triazin-4-amine]",A (A = 1-25% inhibition)
12,"COc1cc(-c2cn3nc(-c4nccn4C)nc(N[C@H]4C[C@H](OC)C4)c3c2C)ccn1 [Compound 160, N-((1r,3r)-3-Methoxycyclobutyl)-6-(2-methoxypyridin-4-yl)-5-methyl-2-(1-methyl-1H-imidazol-2-yl)pyrrolo[2,1-f][1,2,4]triazin-4-amine]",A* (A* = 1-25% activation)
13,"Cc1c(-c2ccn(C3CC3)n2)cn2nc(-c3nccn3C)nc(Nc3cc(OCCCN(C)C)ccn3)c12 [Compound 148, 6-(1-Cyclopropyl-1H-pyrazol-3-yl)-N-(4-(3-(dimethylamino)propoxy)pyridin-2-yl)-5-methyl-2-(1-methyl-1H-imidazol-2-yl)pyrrolo[2,1-f][1,2,4]triazin-4-amine]",A (A = 1-25% inhibition)
14,"COCCO[C@H]1C[C@H](Nc2nc(-c3nccn3C)nn3cc(-c4ccn(C)n4)c(C)c23)C1 [Compound 130, N-((1r,3r)-3-(2-Methoxyethoxy)cyclobutyl)-5-methyl-2-(1-methyl-1H-imidazol-2-yl)-6-(1-methyl-1H-pyrazol-3-yl)pyrrolo[2,1-f][1,2,4]triazin-4-amine]",C (C = 46-75% inhibition)
15,"Cc1c(-c2ccn(C)n2)cn2nc(-c3nccn3C)nc(Nc3cc(OCCO)ncn3)c12 [Compound 101, 2-((6-((5-Methyl-2-(1-methyl-1H-imidazol-2-yl)-6-(1-methyl-1H-pyrazol-3-yl)pyrrolo[2,1-f][1,2,4]triazin-4-yl)amino)pyrimidin-4-yl)oxy) ethan-1-ol]",D* (D* = 76-100% activation)
16,"CO[C@H]1C[C@@H](Nc2nc(-c3nccn3C)nn3cc(-c4ccn(C)n4)c(C)c23)C1 [Compound 131, N-((1s,3s)-3-Methoxycyclobutyl)-5-methyl-2-(1-methyl-1H-imidazol-2-yl)-6-(1-methyl-1H-pyrazol-3-yl)pyrrolo[2,1-f][1,2,4]triazin-4-amine]",0 (0 = 0% inhibition)
17,"Cc1c(-c2ccn(C(C)C)n2)cn2nc(-c3nccn3C)nc(Nc3ncc[nH]3)c12 [Compound 125, N-(1H-Imidazol-2-yl)-6-(1-isopropyl-1H-pyrazol-3-yl)-5-methyl-2-(1-methyl-1H-imidazol-2-yl)pyrrolo[2,1-f][1,2,4]triazin-4-amine]",B (B = 26-45% inhibition)
18,"COCCO[C@H]1C[C@H](Nc2nc(-c3nccn3C)nn3cc(-c4ccnc(OC)c4)c(C)c23)C1 [Compound 161, N-((1r,3r)-3-(2-Methoxy-ethoxy)cyclo-butyl)-6-(2-methoxy-pyridin-4-yl)-5-methyl-2-(1-methyl-1H-imidazol-2-yl)pyrrolo[2,1-f][1,2,4]triazin-4-amine]",B (B = 26-45% inhibition)
19,"Cc1c(-c2ccn(C3CC3)n2)cn2nc(-c3nccn3C)nc(O)c12 [Compound 134, 6-(1-Cyclopropyl-1H-pyrazol-3-yl)-5-methyl-2-(1-methyl-1H-imidazol-2-yl)pyrrolo[2,1-f][1,2,4]triazin-4-ol]",B (B = 26-45% inhibition)
